Experimental data as given in PMC11954145, “Antimicrobial and ADME properties of methoxylated, methylated and nitrated 2-hydroxynaphthalene-1 carboxanilides” (ADMET & DMPK, 2025).
≈ marks a conversion by molar mass, not a printed value. Where “and” joins values, the source holds several entries; their conditions need not be identical. Identical values can stand only once. Like-named read-outs stand apart in the source and are kept apart here.

Columns and labels:
[1] = Lipophilicity determination by RP-HPLC (log k, log D); format: physicochemical; conditions: for log D6.5: RP-HPLC C18, MeOH 72 % / acetate-buffered saline pH 6.5; for log D7.4: RP-HPLC C18, MeOH 72 % / acetate-buffered saline pH 7.4; for log k (logarithm of the capacity factor): RP-HPLC C18, MeOH 72 % / water 28 %
Description: An HPLC system Agilent 1200 equipped with a DAD detector (Agilent, Santa Clara, CA, USA) was used. A chromatographic column Symmetry® C18 5 μm, 4.6×250 mm, part No. WAT054275 (Waters Corp., Milford, MA, USA) was used. The HPLC separation process was monitored and evaluated with EZChrom Elite software ver. 3.3.2 (Agilent). Isocratic elution by a mixture of MeOH p.a. (72 %) and H2O-HPLC Mili-Q grade (28 %) as a mobile phase was used for the determination of capacity factor k. Isocratic elution by a mixture of MeOH p.a. (72 %) and acetate-buffered saline (pH 7.4 and pH 6.5) (28 %) as a mobile phase was used for the determination of distribution coefficients expressed as D7.4 and D6.5. The total flow of the column was 1.0 mL min^-1, the injection volume was 20 μL, the column temperature was 40 °C, and the sample temperature was 10 °C. The detection wavelength of 210 nm was chosen. A KI methanolic solution was used to determine the dead times (tD). Retention times (tR) were measured in minutes. The capacity factors k were calculated according to the formula k = (tR–tD)/tD, where tR is the retention time of the solute, and tD is the dead time obtained using an unretained analyte. The distribution coefficients DpH were calculated according to the formula DpH = (tR–tD)/tD. Each experiment was repeated three times.
The capacity factor and distribution coefficients were measured by RP-HPLC on a C18 column with methanol as an organic modifier of the mobile phase. In addition to the experimental lipophilicities, predicted log P values were also calculated using ACD/Percepta, see Table 1. […] The values of σ(Ar) are found in a wide range from 0.01 to 1.36, so the compounds contain substituents with both electron-donating and slightly electron-withdrawing properties.

S. aureus ATCC 29213 = test: Antibacterial screening, broth microdilution MIC; format: cell-based; conditions: Staphylococcus aureus, ATCC29213; ATCC 29213, 24 h at 37 °C; read-out: MIC S. aureus
MRSA 63718 = test: Antibacterial screening, broth microdilution MIC; format: cell-based, methicillin-resistant S. aureus; conditions: Staphylococcus aureus, read-out: MIC MRSA 63718
MRSA SA 630 = test: Antibacterial screening, broth microdilution MIC; format: cell-based, methicillin-resistant S. aureus; conditions: Staphylococcus aureus, clinical isolate, 24 h at 37 °C, read-out: MIC MRSA SA 630
MRSA SA 3202 = test: Antibacterial screening, broth microdilution MIC; format: cell-based, methicillin-resistant S. aureus; conditions: Staphylococcus aureus, clinical isolate, 24 h at 37 °C, read-out: MIC MRSA SA 3202
[2] = test system: Enterococcus faecalis ATCC 29212; test: Antibacterial screening, broth microdilution MIC; format: cell-based; conditions: ATCC29212, ATCC 29212, 24 h at 37 °C, read-out: MIC E. faecalis
VRE 342B = test: Antibacterial screening, broth microdilution MIC; format: cell-based, vancomycin-resistant E. faecalis; conditions: Enterococcus, vanA isolate, 24 h at 37 °C, read-out: MIC VRE 342B
VRE 725B = test: Antibacterial screening, broth microdilution MIC; format: cell-based, vancomycin-resistant E. faecalis; conditions: Enterococcus, vanA isolate, 24 h at 37 °C, read-out: MIC VRE 725B
VRE 368 = test: Antibacterial screening, broth microdilution MIC; format: cell-based, vancomycin-resistant E. faecalis; conditions: Enterococcus, vanA isolate, 24 h at 37 °C, read-out: MIC VRE 368
E. coli ATCC 25922 = test: Antibacterial screening, broth microdilution MIC; format: cell-based; conditions: Escherichia coli, ATCC25922; ATCC 25922, 24 h at 37 °C
[3] = test system: Mycobacterium tuberculosis ATCC 25177/H37Ra; test: Antimycobacterial screening, broth dilution MIC (Alamar blue); format: cell-based; conditions: 336 h, H37Ra, 14 days at 37 °C, Alamar blue, read-out: MIC M. tuberculosis
Protocol: The evaluation of in vitro antimycobacterial activity of the compounds was performed against Mycobacterium tuberculosis ATCC 25177/H37Ra, Mycobacterium kansasii DSM 44162 and Mycobacterium smegmatis ATCC 700084.
The broth dilution micro-method in Middlebrook 7H9 medium (Difco, Lawrence, KS, USA) supplemented with ADC Enrichment (Difco) was used to determine the minimum inhibitory concentration (MIC) as previously described. […] The final concentrations of the evaluated compounds, ranging from 256 to 0.125 μg mL^-1, were obtained by twofold serial dilution of the stock solution in a microtiter plate with a sterile medium. Bacterial inocula were prepared by transferring colonies from culture to sterile water. The plate was inoculated by tested microorganisms. The final concentration of bacterial cells was 1.5×10^6 for M. tuberculosis and 10^5 cells in a microtiter plate for other mycobacteria. Isoniazid and rifampicin (Sigma) were used as reference antimycobacterial drugs. Drug-free controls, sterility controls, and controls consisting of medium and DMSO alone were included. The plates were incubated for a defined time at an appropriate temperature (3 days at 37 °C for M. smegmatis, and 14 days at 37 °C for M. tuberculosis and M. kansasii). […] The MICs against M. tuberculosis were evaluated by Alamar blue (Oxoid). After incubation, 10 % of Alamar blue was added to each well, and the plate was incubated for 24 h. The MIC values were assessed as the lowest concentration of the tested compounds, which prevented changing blue resazurin to pink resorufin. The experiments were repeated three times. The minimum inhibitory concentrations (MICs) were defined as the lowest concentration of the compound at which no visible bacterial growth was observed. The MIC value is routinely and widely used in bacterial assays and is a standard detection limit according to the CLSI [60].

[4] = test system: Mycobacterium kansasii DSM 44162; test: Antimycobacterial screening, broth dilution MIC; format: cell-based; conditions: DSM44162, 336 h, DSM 44162, 14 days at 37 °C, read-out: MIC M. kansasii
[5] = test system: Mycobacterium smegmatis ATCC 700084; test: Antimycobacterial screening, broth dilution MIC; format: cell-based; conditions: Mycolicibacterium smegmatis, ATCC700084, 72 h; ATCC 700084, 3 days at 37 °C; read-out: MIC M. smegmatis
[6] = clinical isolate, 24 h at 37 °C

Row | SMILES | log D6.5 [1] | log D7.4 [1] | log k (logarithm of the capacity factor) [1] | MIC (S. aureus ATCC 29213) [µM] | MIC (MRSA 63718; [6]) [µM] | MIC (MRSA SA 630) [µM] | MIC (MRSA SA 3202) [µM] | MIC [2] [µM] | MIC (VRE 342B) [µM] | MIC (VRE 725B) [µM] | MIC (VRE 368) [µM] | MIC (E. coli ATCC 25922) [µM] | MIC [3] [µM] | MIC [4] [µM] | MIC [5] [µM] | MIC (MRSA 63718; 24 h) [µM]
1 | COc1ccc(NC(=O)c2c(O)ccc3ccccc23)cc1C(F)(F)F [Compound 21, 2-Hydroxy-N-[4-methoxy-3-(trifluoromethyl)phenyl]naphthalene-1-carboxamide] | 0.1704 | 0.1745 | 0.16 and 0.1635 | 88.6 (≈ 32 µg/mL) | 177 (≈ 64 µg/mL) | 88.6 (≈ 32 µg/mL) | 88.6 (≈ 32 µg/mL) | 88.6 (≈ 32 µg/mL) | 177 (≈ 64 µg/mL) | 88.6 (≈ 32 µg/mL) | 88.6 (≈ 32 µg/mL) | 709 (≈ 256 µg/mL) | 354 (≈ 128 µg/mL) | 709 (≈ 256 µg/mL) | 177 (≈ 64 µg/mL) | 
2 | COc1ccc(NC(=O)c2c(O)ccc3ccccc23)cc1 [Compound 4, 2-hydroxy-N-(4-methoxyphenyl)naphthalene-1-carboxamide] | -0.0491 | -0.0382 | -0.0380 | > 873 | > 873 | > 873 | > 873 | > 873 | > 873 | > 873 | > 873 | 873 (≈ 256 µg/mL) | 109 (≈ 32 µg/mL) | 218 (≈ 63.9 µg/mL) | 436 (≈ 128 µg/mL) | 
3 | COc1ccc(Br)cc1NC(=O)c1c(O)ccc2ccccc12 [Compound 19, N-(5-Bromo-2-methoxyphenyl)-2-hydroxynaphthalene-1-carboxamide] | 0.5836 | 0.5835 | 0.5845 | 688 (≈ 256 µg/mL) | 688 (≈ 256 µg/mL) | 688 (≈ 256 µg/mL) | 688 (≈ 256 µg/mL) | 688 (≈ 256 µg/mL) | 688 (≈ 256 µg/mL) | 688 (≈ 256 µg/mL) | 688 (≈ 256 µg/mL) | 688 (≈ 256 µg/mL) | 344 (≈ 128 µg/mL) | 688 (≈ 256 µg/mL) | 688 (≈ 256 µg/mL) | 
4 | Cc1ccc(NC(=O)c2c(O)ccc3ccccc23)cc1C(F)(F)F [Compound 23, 2-Hydroxy-N-[4-methyl-3-(trifluoromethyl)phenyl]naphthalene-1-carboxamide] | 0.4621 | 0.4636 | 0.46 and 0.4605 | 23.2 (≈ 8.01 µg/mL) |  | 92.7 (≈ 32 µg/mL) | 46.3 (≈ 16 µg/mL) | 741 (≈ 256 µg/mL) | 741 (≈ 256 µg/mL) | 741 (≈ 256 µg/mL) | 741 (≈ 256 µg/mL) | 741 (≈ 256 µg/mL) | 371 (≈ 128 µg/mL) | 741 (≈ 256 µg/mL) | 46.3 (≈ 16 µg/mL) | 371 (≈ 128 µg/mL)
5 | COc1ccc(C(F)(F)F)cc1NC(=O)c1c(O)ccc2ccccc12 [Compound 20, 2-Hydroxy-N-[2-methoxy-5-(trifluoromethyl)phenyl]naphthalene-1-carboxamide] | 0.5323 | 0.5305 | 0.5335 | 709 (≈ 256 µg/mL) | 709 (≈ 256 µg/mL) | 709 (≈ 256 µg/mL) | 709 (≈ 256 µg/mL) | 709 (≈ 256 µg/mL) | 709 (≈ 256 µg/mL) | 709 (≈ 256 µg/mL) | 709 (≈ 256 µg/mL) | 709 (≈ 256 µg/mL) | 354 (≈ 128 µg/mL) | 709 (≈ 256 µg/mL) | 709 (≈ 256 µg/mL) | 
